How the values were obtained:
patients with CLL = assay: Compound 1 besylate monotherapy in CLL patients; assay type: in vivo, human
Environmental stability = assay type: physicochemical
[1] = monotherapy, as of Sep. 11, 2012

C=CC(=O)Nc1cccc(Nc2nc(Nc3ccc(OCCOC)cc3)ncc2F)c1 [Compound 1, N-(3-(5-fluoro-2-(4-(2-methoxyethoxy)phenylamino)pyrimidin-4-ylamino)phenyl)acrylamide]
maximum tolerated dose (MTD) (patients with CLL; single agent, up to 750 mg PO QD): has not yet been reached

C=CC(=O)Nc1cccc(Nc2nc(Nc3ccc(OCCOC)cc3)ncc2F)c1.O=S(=O)(O)c1ccccc1 [N-(3-(5-fluoro-2-(4-(2-methoxyethoxy)phenylamino)pyrimidin-4-ylamino)phenyl)acrylamide benzenesulfonic acid salt]
patients with CLL with stable disease continuing on treatment (patients with CLL; [1]): 35 out of 43 | patients with early increases in absolute lymphocyte counts (ALC) (patients with CLL; [1]): 28 of 33 | patients with reductions in lymph node size (patients with CLL; [1]): 15 of 23 | environmental instabilities (heat, acid, base) (Environmental stability): no environmental instabilities

From US9492471B2, “Methods of treating a disease or disorder associated with Bruton'S Tyrosine Kinase” (Celgene Avilomics Research, Inc., priority 2013, dated 2016)
